Experimental data: patent US20100256136A1, “Method for Enhancing Pdt Efficacy Using a Tyrosine Kinase Inhibitor” (priority 2006, published 2010)
Structures can show the parent of a compound that is named as a salt.

What was measured:
RIF-1 cells [1] = test: In vitro PDT phototoxicity (MTT assay) with ABCG2 modulators; details: for Increase of HPPH-PDT phototoxicity: 10 μM modulator, high light doses
RIF-1 cells [2] = format: cell-based, murine; details: for Increase of intracellular HPPH levels: 0.8 μM HPPH, 10 μM modulator, p<0.01
Protocol: (§1) Cells were plated in 6-well plates at a density of 3×10^5 cells per well and incubated overnight. […] Cells were cultured for an additional 4 hours, then washed with cold culture medium and with PBS. Photosensitizer levels were determined using Solvable® (Perkin Elmer, Boston, MA) extraction (17). Briefly, the cells were solubilized in 0.5 ml Solvable® at 37° C. overnight. The Solvable® extract then was diluted 1:1 with PBS, the photosensitizer levels were determined by fluorometry, and concentrations were extrapolated from standard curves. Intracellular photosensitizer levels were normalized to intracellular protein content. To study photosensitizer efflux, cells were incubated with photosensitizer for 4 hours, then washed once with cold medium, resuspended in drug-free medium, placed at 37° C. or 4° C. for 1 hour and washed once with cold PBS. Photosensitizer levels were then determined using Solvable® extraction, as above.

ABCG2 [3] = test: ABCG2 substrate status concluded from efflux and phototoxicity studies; format: cell-based; details: conclusion from efflux and phototoxicity data
Protocol: as §1

[4] = tested on: HEK-293 pcDNA cells (ABCG2-); test: HPPH efflux in empty-vector control cells; format: cell-based; details: HEK293-pcDNA3 cells
Description: (§2) In general known cell lines were used. FaDu human hypopharyngeal squamous cell carcinoma, RIF-1 murine radiation-induced fibrosarcoma and Colo 26 murine colon carcinoma cells were obtained from the American Type Culture Collection (ATCC; Manassas, VA). BCC-1/KMC, a human basal cell carcinoma cell line (14), was provided by Dr. Tak-Wah Wong, National Cheng Kung University Hospital, Tainan, Taiwan. HEK-293 cells transfected with either an empty pcDNA3 vector or a pcDNA3 vector containing full-length ABCG2 (HEK-293 pcDNA or HEK-293 […]) were provided by Dr. Susan Bates at the U.S. National Institute of Health, Bethesda, MD.. Cells were plated in 6-well plates at a density of 3×10^5 cells per well and incubated overnight. […] Cells were cultured for an additional 4 hours, then washed with cold culture medium and with PBS. Photosensitizer levels were determined using Solvable® (Perkin Elmer, Boston, MA) extraction (17). Briefly, the cells were solubilized in 0.5 ml Solvable® at 37° C. overnight. The Solvable® extract then was diluted 1:1 with PBS, the photosensitizer levels were determined by fluorometry, and concentrations were extrapolated from standard curves. Intracellular photosensitizer levels were normalized to intracellular protein content. […] Photosensitizer levels were then determined using Solvable® extraction, as above.

RIF-1 tumors [5] = tested on: RIF-1 tumors
Protocol: (§3) To determine photosensitizer levels, samples of tumor, skin and muscle tissue were harvested 24 hours after the HPPH administration and dissolved in Solvable at 63° C. overnight. HPPH levels were measured by fluorometry as described above. In other experiments mice were administered ^14C-labelled HPPH and photosensitizer levels in the harvested tissues were determined by scintillation counting. […] After 24 hours, the tumors were treated with 665 nm light from an argon ion laser-pumped dye laser (Spectra Physics, Mountain View CA) with a fluence of 72 J/cm^2 delivered at a rate of 14 mW/cm^2. […] Tumors were measured every 1 to 3 days, and mice were sacrificed when tumor volumes exceeded 400 mm^3.

RIF-1 cells [6] = test: Photosensitizer efflux, 1 h in drug-free medium at 37° C. or 4° C.; format: cell-based, murine; details: RIF-1 cells (ABCG2+), 1 h efflux
Protocol: as §1

Colo 26 cells [7] = test: as above; format: cell-based, murine; details: Colo 26 cells (ABCG2+), 1 h efflux
Protocol: as §1

[8] = tested on: HEK-293 R482 cells (ABCG2+); test: HPPH uptake and efflux in ABCG2-transfected cells; format: cell-based
Description: as §2

HEK-293 pcDNA cells [9] = test: In vitro PDT phototoxicity (MTT assay) with ABCG2 modulators; format: cell-based; details: 0.8 μM HPPH
BCC-1 cells [10] = test: Photosensitizer efflux, 1 h in drug-free medium at 37° C. or 4° C.; format: cell-based, human; details: BCC-1 cells (ABCG2+), 1 h efflux
Protocol: as §1

FaDu cells [11] = test: as above; format: cell-based, human; details: lack ABCG2 expression, 1 h efflux
Protocol: as §1

ABCG2 [12] = molecular target: T1, ABCG2 (Homo sapiens, UniProt Q9UNQ0); details: literature (refs 8, 10); cited from earlier work
T1 sequence (Q9UNQ0 1-655): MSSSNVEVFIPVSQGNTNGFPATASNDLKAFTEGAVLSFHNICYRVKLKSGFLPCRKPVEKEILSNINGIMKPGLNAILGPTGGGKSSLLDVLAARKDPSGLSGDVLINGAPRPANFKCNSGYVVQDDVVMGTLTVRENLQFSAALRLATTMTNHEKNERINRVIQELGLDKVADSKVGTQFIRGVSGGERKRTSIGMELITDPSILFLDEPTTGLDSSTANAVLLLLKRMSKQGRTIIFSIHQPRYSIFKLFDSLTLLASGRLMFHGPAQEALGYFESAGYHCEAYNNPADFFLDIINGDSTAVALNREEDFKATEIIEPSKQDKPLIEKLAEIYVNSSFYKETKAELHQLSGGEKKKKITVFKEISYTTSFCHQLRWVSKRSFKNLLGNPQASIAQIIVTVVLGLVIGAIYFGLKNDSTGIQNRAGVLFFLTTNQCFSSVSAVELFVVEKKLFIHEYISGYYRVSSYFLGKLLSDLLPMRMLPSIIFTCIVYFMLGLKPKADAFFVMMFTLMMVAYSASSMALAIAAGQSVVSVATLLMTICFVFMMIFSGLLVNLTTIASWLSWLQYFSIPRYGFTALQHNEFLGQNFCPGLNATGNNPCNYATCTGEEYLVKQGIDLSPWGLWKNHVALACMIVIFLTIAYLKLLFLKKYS

BCC-1 cells [13] = test: In vitro PDT phototoxicity (MTT assay) with ABCG2 modulators; format: cell-based, human; details: BCC-1 cells (ABCG2+), 0.4 μM HPPH, 10 μM imatinib mesylate
FaDu cells [14] = test: as above; format: cell-based, human; details: FaDu cells (lack ABCG2), 0.8 μM HPPH, 10 or 20 μM imatinib mesylate
Colo 26 cells [15] = test: Photosensitizer accumulation with ABCG2 modulators; format: cell-based, murine; details: 0.8 mM ALA, with vs without imatinib mesylate
Protocol: as §1

RIF-1 tumors [16] = test: HPPH levels in tumor, skin and muscle of tumor-bearing mice; format: in vivo, C3H/HeJCr mice; details: same regimen as tumor levels, 24 hours after HPPH
Protocol: as §3

Colo 26 cells [17] = test: In vitro PDT phototoxicity (MTT assay) with ABCG2 modulators; format: cell-based, murine; details: ALA, 10 μM imatinib mesylate
HEK-293 R482 cells = test: Photosensitizer accumulation with ABCG2 modulators; format: cell-based; details: 10 μM modulator, 0.8 μM HPPH, four hours, p<0.05
Protocol: as §1

HEK-293 pcDNA cells [18] = test: Photosensitizer accumulation with ABCG2 modulators; format: cell-based; details: 10 μM modulator, 0.8 μM HPPH, four hours
Protocol: as §1

## COc1ccc2c3c([nH]c2c1)[C@H](C=C(C)C)N1C(=O)[C@@H]2CCCN2C(=O)[C@@H]1C3 [FTC, fumitremorgin C]
RIF-1 cells [1]; 0.8 μM HPPH
  Increase of HPPH-PDT phototoxicity: ~2 logs
RIF-1 cells [2]
  Increase of intracellular HPPH levels: ~4 fold

## CCCCCCOC(C)c1c(C)c2cc3nc(c4c5[nH]c(cc6nc(cc1[nH]2)C(C)=C6CC)c(C)c5C(=O)C4)[C@@H](CCC(=O)O)[C@@H]3C (stereo partly shown) [HPPH, 2-[1-hexyloxyethyl]-2-devinyl pyropheophorbide-a]
ABCG2 [3]
  Substrate for ABCG2: ABCG2 substrate
[4]
  Temperature-dependent changes in efflux of HPPH: no temperature-dependent changes
RIF-1 tumors [5]; HPPH-PDT treatment alone: 0.2 μmol/kg HPPH, 24 hours later 72 J/cm^2 665 nm light at 14 mW/cm^2
  Time for 50% of the tumors to grow to 400 mm^3: 6 days
RIF-1 cells [6]
  Intracellular HPPH level after efflux at 37° C. compared to 4° C.: significantly (p<0.01) lower
Colo 26 cells [7]
  Intracellular HPPH level after efflux at 37° C. compared to 4° C.: significantly (p<0.01) lower
[8]; HEK-293 R482 cells, 1 h efflux
  Intracellular HPPH level after efflux at 4° C. compared to 37° C.: significantly (p<0.05) higher
[8]; after 4 h uptake
  HPPH levels after uptake (0 hour group), ABCG2- HEK-293 pcDNA3 cells compared to ABCG2+ HEK-293 R482 cells: significantly (p<0.05) higher
HEK-293 pcDNA cells [9]; no modulator
  Sensitivity to HPPH-PDT, HEK-293 pcDNA cells compared to HEK-293 R482 cells: more sensitive
BCC-1 cells [10]
  Intracellular HPPH level after efflux at 37° C. compared to 4° C.: significantly (p<0.01) lower
FaDu cells [11]
  HPPH content following efflux at 37° C. and 4° C.: did not differ significantly

## C=Cc1c(C)c2cc3nc(c(CC(=O)O)c4[nH]c(cc5nc(cc1[nH]2)C(C)=C5CC)c(C)c4C(=O)O)[C@@H](CCC(=O)O)[C@@H]3C [chlorin e6]
ABCG2 [12]
  Transport by ABCG2: transports

## C=CC1=C(C)c2cc3[nH]c(cc4nc(cc5[nH]c(cc1n2)c(C)c5CCC(=O)O)C(CCC(=O)O)=C4C)c(C)c3C=C [5-aminolevulinic acid (ALA)-induced PpIX, protoporphyrin IX]
ABCG2 [12]
  Transport by ABCG2: transports

## Cc1ccc(NC(=O)c2ccc(CN3CCN(C)CC3)cc2)cc1Nc1nccc(-c2cccnc2)n1 [imatinib mesylate, 4[(4-methyl-1-piperazininyl)methyl]-N-(4-methyl-3-[(4-(3-pyidinyl)-2-pyrimidinyl)amino)-phenyl] benzamide methane sulfonate]
RIF-1 cells [1]; 0.14 μM BPD-MA, 10 μM imatinib mesylate
  Effect on phototoxicity of BPD-MA: increased
RIF-1 cells [1]; 0.8 μM HPPH
  Increase of HPPH-PDT phototoxicity: ~2 logs
RIF-1 cells [1]; 1.6 μM HPPH-Lactose, 10 μM imatinib mesylate
  Effect on phototoxicity of HPPH-lactose-PDT: did not increase
RIF-1 cells [1]; 2 μg/ml Photofrin, 10 μM imatinib mesylate
  Effect on phototoxicity of Photofrin-PDT: did not increase
BCC-1 cells [13]
  Effect on HPPH-PDT phototoxicity: increased
RIF-1 tumors [5]; brief course, 4 x 200 mg/kg oral gavage
  Anti-tumor effects of imatinib mesylate alone, without PDT: no anti-tumor effects
RIF-1 tumors [5]; mouse, in vivo
  Observable toxicity: no observable toxicity
FaDu cells [14]
  Effect on HPPH-PDT phototoxicity: not
Colo 26 cells [15]
  Effect on intracellular levels of ALA-induced PpIX: increased
RIF-1 cells [2]; 0.14 μM BPD-MA, with vs without imatinib mesylate
  Effect on intracellular levels of BPD-MA: increased
RIF-1 cells [2]
  Increase of intracellular HPPH levels: ~4 fold
HEK-293 pcDNA cells [9]; HEK-293 pcDNA3 cells, pretreatment with 10 μM
  Effect on sensitivity to HPPH-PDT: no effect
RIF-1 tumors [16]
  Effect on HPPH levels in skin and muscle: less effect
Colo 26 cells [17]
  Effect on phototoxicity of PpIX: increased
HEK-293 R482 cells
  Effect on intracellular HPPH levels: increased
HEK-293 pcDNA cells [18]
  Effect on HPPH accumulation: no effect

## C=Cc1c(C)c2cc3nc(c4c5[nH]c(cc6nc(cc1[nH]2)C(C)=C6CC)c(C)c5C(=O)[C@@H]4C(=O)OC)[C@@H](CCC(=O)O)[C@@H]3C [pheophorbide α]
ABCG2 [12]
  Transport by ABCG2: specific substrate

## pyropheophorbide-a methyl ester
ABCG2 [12]
  Transport by ABCG2: transports

## COc1cc2ncnc(Nc3ccc(F)c(Cl)c3)c2cc1OCCCN1CCOCC1 [gefitnib, N-(3-chloro-4-fluoro-phenyly)-7-methoxy-6(3-morpholin-4-ylpropoxy) quinazolin-4-amine]
RIF-1 cells [1]; 0.8 μM HPPH, CsA 10 μM, gefitinib 5 μM
  Effect on HPPH-PDT phototoxicity: effective
RIF-1 cells [1]; 5 μM
  Dark toxicity: significant dark toxicity
